# Reference: patent publication US20240247080A1, “GLP1/GIP/NPY2 RECEPTOR TRIPLE AGONISTS” (Boehringer Ingelheim International GmbH, priority 2022, published 2024)
# Like-named read-outs stand apart in the source and are kept apart here. Starred links: 1 amine or outer side, 2 acyl side, 3 side chain; linkers in the order of their positions; H or OH if unused. Positions of bridges follow the written chain, without caps; N, C: chain ends. Non-standard residues stand in square brackets, D forms with d. Groups on a side chain read outwards from the residue. Chains are numbered I, II in the order given. No end group written: not given here. *: point of attachment. C20 diacid = O=C(O)CCCCCCCCCCCCCCCCCCC(=O)*; C18 diacid = O=C(O)CCCCCCCCCCCCCCCCC(=O)*; γGlu = O=C(O)[C@H](CCC(=O)[*:2])N[*:1]; εLys = N[C@@H](CCCCN[*:1])C(=O)[*:2]; AEEA = NCCOCCOCC(=O)O; Aib = CC(C)(N)C(=O)O
# Columns and labels:
# Type in all cases: cell-based
# Conditions in all cases: CreLuc reporter gene assay
# [1] = biological target: T1, hNPY2R (Homo sapiens, UniProt P49146); assay: hNPY2R CreLuc reporter gene assay in 0.5% and 100% plasma
# T1 construct: expressed in transfected cells; host or cells: HEK-293 cells carrying a CRE-luciferase reporter gene
# T1 sequence (P49146 1-381): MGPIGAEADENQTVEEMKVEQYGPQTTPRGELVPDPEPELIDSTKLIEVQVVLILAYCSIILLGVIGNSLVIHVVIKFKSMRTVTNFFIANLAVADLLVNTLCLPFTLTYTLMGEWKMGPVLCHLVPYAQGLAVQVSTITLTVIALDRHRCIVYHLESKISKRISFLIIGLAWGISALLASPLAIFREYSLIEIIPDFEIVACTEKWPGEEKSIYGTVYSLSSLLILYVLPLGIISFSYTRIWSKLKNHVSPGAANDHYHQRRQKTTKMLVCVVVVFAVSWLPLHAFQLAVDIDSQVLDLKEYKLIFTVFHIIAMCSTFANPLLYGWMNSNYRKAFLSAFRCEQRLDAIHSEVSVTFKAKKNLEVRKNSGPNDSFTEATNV
# Description: Example 1: hGLPR/hGIPR/hNPY2R CreLuc Assay in 0.5% and 100% Plasma
# CHO and HEK-293 recombinant cell lines express a luciferase reporter gene under control of the cAMP responsive element (CRE). As a second recombinant protein the GLP-1 and NPY2 receptors were expressed in the reporter gene HEK cells, and the GIP receptor was expressed in the reporter gene CHO cells, respectively. Stimulation of these recombinant cells with an agonist leads to an increase of intracellular cAMP levels. In the presence of cAMP, the transcription factor CRE binding protein (CREB) binds to the CRE and to the CREB binding protein (CBP), which leads to transcription of the luciferase reporter gene. Peptides upon serial-dilution in 100% DMSO were transferred into 384-well assay plates with 5 μl pre-dispensed assay buffer (1×HBSS, 20 mM HEPES, pH7.4 supplemented with 0.5% human plasma) using acoustic dispensing on a Labcyte ECHO. Cryo-preserved transgenic reporter gene cells were thawed in assay buffer. 20 μl (10.000 cells/well) were added to the plate with the peptides and incubated for 4 hours at 37° C. in a humidified incubator. Following incubation, assay plates are equilibrated to room temperature, followed by addition of 25 μl of Bright-GIo™ Luciferase reagent, incubation at room temperature for 10 minutes and analysis of luminescence (Envision Reader). Concentration response evaluation of compounds was performed with 8 concentrations of peptides (covering four decades). EC50 values were calculated by non-linear regression using sigmoid concentration-response with variable slope. The same assays were run in the presence of 100% plasma with no additional buffer constituents.
# [2] = biological target: T2, hGIPR (Homo sapiens, UniProt P48546); assay: hGIPR CreLuc reporter gene assay in 0.5% and 100% plasma
# T2 construct: expressed in transfected cells; host or cells: CHO cells carrying a CRE-luciferase reporter gene
# T2 sequence (P48546 22-466): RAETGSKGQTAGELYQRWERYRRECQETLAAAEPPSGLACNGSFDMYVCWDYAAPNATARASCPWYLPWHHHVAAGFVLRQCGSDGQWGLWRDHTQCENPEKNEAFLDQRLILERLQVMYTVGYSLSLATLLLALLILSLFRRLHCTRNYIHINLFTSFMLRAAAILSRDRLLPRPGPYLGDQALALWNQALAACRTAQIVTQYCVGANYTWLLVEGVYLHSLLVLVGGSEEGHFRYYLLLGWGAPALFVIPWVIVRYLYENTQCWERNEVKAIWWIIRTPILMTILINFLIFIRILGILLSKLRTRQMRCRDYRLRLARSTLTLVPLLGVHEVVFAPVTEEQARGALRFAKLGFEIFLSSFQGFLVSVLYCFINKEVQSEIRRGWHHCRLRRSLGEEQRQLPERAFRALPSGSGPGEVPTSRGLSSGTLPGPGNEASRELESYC
# Summary of the method: (§1)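 HEK-293 cells co-expressing GLP-1 or NPY2 receptor and CHO cells expressing GIP receptor, each carrying a CRE-driven luciferase reporter, were stimulated with peptides for 4 hours at 37 °C. Luminescence was read after Bright-Glo addition. EC50 came from 8-point, four-decade curves fitted by variable-slope non-linear regression.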
# [3] = biological target: T3, hGLP1R (Homo sapiens, UniProt P43220); assay: hGLP1R CreLuc reporter gene assay in 0.5% and 100% plasma
# T3 construct: expressed in transfected cells; host or cells: HEK-293 cells carrying a CRE-luciferase reporter gene
# T3 sequence (P43220 24-463): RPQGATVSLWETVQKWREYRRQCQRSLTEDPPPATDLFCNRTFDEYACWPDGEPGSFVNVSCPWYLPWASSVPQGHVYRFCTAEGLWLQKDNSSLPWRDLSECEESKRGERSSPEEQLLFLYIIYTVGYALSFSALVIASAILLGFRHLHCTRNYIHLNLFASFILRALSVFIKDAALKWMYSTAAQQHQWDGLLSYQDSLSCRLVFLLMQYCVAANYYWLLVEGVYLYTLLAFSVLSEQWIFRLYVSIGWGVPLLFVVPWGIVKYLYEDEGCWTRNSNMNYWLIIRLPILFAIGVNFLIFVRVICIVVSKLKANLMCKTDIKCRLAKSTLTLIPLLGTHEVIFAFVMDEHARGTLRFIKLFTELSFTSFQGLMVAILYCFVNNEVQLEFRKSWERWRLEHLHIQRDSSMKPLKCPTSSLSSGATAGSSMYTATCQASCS
# Summary of the method: as §1
# [4] = 0.5% human plasma, read-out: hNPY2R 0.5% hP
# [5] = 0.5% human plasma, read-out: hGIPR 0.5% hP
# [6] = 100% human plasma, read-out: hNPY2R 100% hP
# [7] = 100% human plasma, read-out: hGIPR 100% hP
# [8] = 0.5% human plasma, read-out: hGLP1R 0.5% hP
Substance,"EC50 [1, 4] [nM]","EC50 [2, 5] [nM]","EC50 [1, 6] [nM]","EC50 [2, 7] [nM]","EC50 [3, 8] [nM]","EC50 ([3]; 100% human plasma, read-out: hGLP1R 100% hP) [nM]"
"H-Y[Aib]EGTFTSDYSI[Aib]LAAAAQ[Aib]AFVEWLIK([εLys-γGlu-γGlu-γGlu-γGlu-γGlu-γGlu-C20 diacid])GGPSSGASLRHYYNWLTRQRY-NH2 [Compound 20, Y-Aib-E-G-T-F-T-S-D-Y-S-I-Aib-L-A-A-A-A-Q-Aib-A-F-V-E-W-L-I-K(1,3)-GGPSSGASLRHYYNWLTRQRY-NH2.C20DA-gGlu-gGlu-gGlu-gGlu-gGlu-gGlu-eLys(1,2)]",19.1,0.93,–,–,–,–
"H-Y[Aib]EGTFTSDYSI[Aib]LEKQAE[Aib]AFVEWLIK([AEEA-AEEA-γGlu-γGlu-γGlu-γGlu-C18 diacid])GGPSEGASLRHYYNWLTRQRY-NH2 [Compound 251, Y-Aib-E-G-T-F-T-S-D-Y-S-I-Aib-L-E-K-Q-A-E-Aib-A-F-V-E-W-L-I-K(1,3)-GGPSEGASLRHYYNWLTRQRY-NH2.C18DA-gGlu-gGlu-gGlu-gGlu-OEG-OEG(1,2)]",20.6,0.16,48.7,0.98,–,–
"H-Y[Aib]EGTFTSDYSI[Aib]LEKQAQ[Aib]AFVEWLIK([εLys-γGlu-γGlu-γGlu-γGlu-γGlu-γGlu-C20 diacid])GGPRYYASLRHYYNWLTRQRY-NH2 [Compound 62, Y-Aib-E-G-T-F-T-S-D-Y-S-I-Aib-L-E-K-Q-A-Q-Aib-A-F-V-E-W-L-I-K(1,3)-GGPRYYASLRHYYNWLTRQRY-NH2.C20DA-gGlu-gGlu-gGlu-gGlu-gGlu-gGlu-eLys(1,2)]",13.6,0.48,40.5,–,–,–
"H-Y[Aib]EGTFTSDYSI[Aib]LEKQAQ[Aib]AFVEWLIK([εLys-γGlu-γGlu-γGlu-γGlu-γGlu-γGlu-C20 diacid])GGPSEGVSLRHYYNWLTRQRY-NH2 [Compound 241, Y-Aib-E-G-T-F-T-S-D-Y-S-I-Aib-L-E-K-Q-A-Q-Aib-A-F-V-E-W-L-I-K(1,3)-GGPSEGVSLRHYYNWLTRQRY-NH2.C20DA-gGlu-gGlu-gGlu-gGlu-gGlu-gGlu-eLys(1,2)]",16.7,0.69,–,4.36,–,–
"H-Y[Aib]EGTFTSDYSI[Aib]LEKQAQ[Aib]AFVQWLIK([εLys-γGlu-γGlu-γGlu-γGlu-γGlu-C20 diacid])GGPEEPASLRHYYNWLTRQRY-NH2 [Compound 67, Y-Aib-E-G-T-F-T-S-D-Y-S-I-Aib-L-E-K-Q-A-Q-Aib-A-F-V-Q-W-L-I-K(1,3)-GGPEEPASLRHYYNWLTRQRY-NH2.C20DA-gGlu-gGlu-gGlu-gGlu-gGlu-eLys(1,2)]",13.7,0.29,78.9,–,–,–
"H-Y[Aib]EGTFTSDYSI[Aib]LEKQAQ[Aib]AFVQWLIK([εLys-γGlu-γGlu-γGlu-γGlu-γGlu-γGlu-C20 diacid])GGPSEYVSLRHYYNWLTRQRY-NH2 [Compound 78, Y-Aib-E-G-T-F-T-S-D-Y-S-I-Aib-L-E-K-Q-A-Q-Aib-A-F-V-Q-W-L-I-K(1,3)-GGPSEYVSLRHYYNWLTRQRY-NH2.C20DA-gGlu-gGlu-gGlu-gGlu-gGlu-gGlu-eLys(1,2)]",12.9,0.53,24.6,–,–,–
"H-Y[Aib]EGTFTSDYSI[Aib]LEKQAQ[Aib]EFVEWLIK([AEEA-AEEA-γGlu-γGlu-γGlu-C18 diacid])GGPESGASLRHYYNWLTRQRY-NH2 [Compound 81, Y-Aib-E-G-T-F-T-S-D-Y-S-I-Aib-L-E-K-Q-A-Q-Aib-E-F-V-E-W-L-I-K(1,3)-GGPESGASLRHYYNWLTRQRY-NH2.C18DA-gGlu-gGlu-gGlu-OEG-OEG(1,2)]",11.1,0.27,–,–,–,–
"H-Y[Aib]EGTFTSDYSI[Aib]LE[Aib]KAQ[Aib]EFVEWLIK([εLys-γGlu-γGlu-γGlu-γGlu-γGlu-γGlu-C20 diacid])GGPSSGASLRHYYNWLTRQRY-NH2 [Compound 24, Y-Aib-E-G-T-F-T-S-D-Y-S-I-Aib-L-E-Aib-K-A-Q-Aib-E-F-V-E-W-L-I-K(1,3)-GGPSSGASLRHYYNWLTRQRY-NH2.C20DA-gGlu-gGlu-gGlu-gGlu-gGlu-gGlu-eLys(1,2)]",26.8,–,–,–,–,–
"I: H-Y[Aib]EGTFTSDYSI[Aib]LEKQAQ[Aib]AFVEWLIKGGPSEGASLRHYYNWLTRQRY-NH2 / II: {C18 diacid}-EEEEEE (amide I:28-II:C) [Compound 302, Y-Aib-E-G-T-F-T-S-D-Y-S-I-Aib-L-E-K-Q-A-Q-Aib-A-F-V-E-W-L-I-K(1,3)-GGPSEGASLRHYYNWLTRQRY-NH2.C18DA-E-E-E-E-E-E(1,2)]",–,0.33,–,–,0.15,–
"I: H-Y[Aib]EGTFTSDYSI[Aib]LEKQAQ[Aib]AFVQWLIKGGPEEGASLRHYYNWLTRQRY-NH2 / II: {C18 diacid}-EEEEEE[εLys] (amide I:28-II:C) [Compound 196, Y-Aib-E-G-T-F-T-S-D-Y-S-I-Aib-L-E-K-Q-A-Q-Aib-A-F-V-Q-W-L-I-K(1,3)-GGPEEGASLRHYYNWLTRQRY-NH2.C18DA-E-E-E-E-E-E-eLys(1,2)]",–,0.25,–,–,0.2,–
"I: H-Y[Aib]EGTFTSDYSI[Aib]LEKQAQ[Aib]EFVQWLIKGGPSEGASLRHYYNWLTRQRY-NH2 / II: {C18 diacid}-EEEEEE (amide I:28-II:C) [Compound 179, Y-Aib-E-G-T-F-T-S-D-Y-S-I-Aib-L-E-K-Q-A-Q-Aib-E-F-V-Q-W-L-I-K(1,3)-GGPSEGASLRHYYNWLTRQRY-NH2.C18DA-E-E-E-E-E-E(1,2)]",–,0.38,–,–,0.22,–
"Y[Aib]EGTFTSDYSI[Aib]LEKQAQ[Aib]AFIEWLIK([AEEA-AEEA-γGlu-γGlu-γGlu-γGlu-C18 diacid])GGPSEGASLRHYYNWLTRQRY-NH2 [Compound 258, Y-Aib-E-G-T-F-T-S-D-Y-S-I-Aib-L-E-K-Q-A-Q-Aib-A-F-I-E-W-L-I-K(1,3)-GGPSEGASLRHYYNWLTRQRY-NH2.C18DA-gGlu-gGlu-gGlu-glu-OEG-OEG(1,2)]",–,0.16,–,1.23,0.17,–
"Y[Aib]EGTFTSDYSI[Aib]LEKQAQ[Aib]AFVQWLIK([AEEA-AEEA-γGlu-γGlu-γGlu-C18 diacid])GGPSEGASLRHYYNWLTRQRY-NH2 [Compound 266, Y-Aib-E-G-T-F-T-S-D-Y-S-I-Aib-L-E-K-Q-A-Q-Aib-A-F-V-Q-W-L-I-K(1,3)-GGPSEGASLRHYYNWLTRQRY-NH2.C18DA-gGlu-gGlu-gGlu-OEG-OEG(1,2)]",–,0.13,–,0.65,0.1,2.21
"Y[Aib]EGTFTSDYSI[Aib]LEKQAQ[Aib]EFVQWLIK([AEEA-AEEA-γGlu-γGlu-γGlu-C18 diacid])GGPSEGASLRHYYNWLTRQRY-NH2 [Compound 160, Y-Aib-E-G-T-F-T-S-D-Y-S-I-Aib-L-E-K-Q-A-Q-Aib-E-F-V-Q-W-L-I-K(1,3)-GGPSEGASLRHYYNWLTRQRY-NH2.C18DA-gGlu-gGlu-gGlu-OEG-OEG(1,2)]",–,0.33,–,0.91,0.3,–
